# Results published in patent publication EP4206196A1, “PYRIMIDINE SUBSTITUTED DERIVATIVES AS TYK2 INHIBITORS” (Almirall S.A., priority 2021, dated 2023).
# Legend:
# [1] = target: T1, TYK2 (JH2domain-pseudokinase) (Homo sapiens, UniProt P29597); assay: TYK2 JH2 domain binding assay (KINOMEscan)
# T1 construct: TYK2 (JH2domain-pseudokinase)-tagged T7 phage strains were prepared in an E. coli host derived from the BL21 strain; made in house; host or cells: E. coli BL21-derived host (T7 phage) or HEK-293 cells
# How it was run: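 Kd values come from nonlinear least-squares fits of 11-point 3-fold dilutions (mostly 30,000 nM top, lowered when Kd fell below 0.5 nM). Test compound competed with bead-bound biotinylated ligand for qPCR-tagged TYK2 pseudokinase (JH2) domain, shaken 1 h at room temperature, with about 1% final DMSO.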
# [2] = test system: STAT1/3 through TYK2/JAK1; assay: IFNa induced STAT phosphorylation in HEK293 cells (SIE-bla reporter gene); assay type: cell-based; conditions: Homo sapiens, HEK293; HEK293T-sie-bla cells, IFNa at EC80, 4 hours; read-out: Inhibition of IFNa induced STAT phosphorylation HEK293 cells IC50
# How it was run: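 Read-out was FRET from a β-lactamase reporter under a SIE promoter in HEK293T cells, with substrate added after a 4 h, 37°C co-incubation of compound and EC80 IFNa and left overnight in the dark. Compounds ran as 10-point 1/5 dilutions at 0.1% final DMSO; four-parameter log fit gave IC50.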
# T1 sequence (P29597 589-875 limits assumed): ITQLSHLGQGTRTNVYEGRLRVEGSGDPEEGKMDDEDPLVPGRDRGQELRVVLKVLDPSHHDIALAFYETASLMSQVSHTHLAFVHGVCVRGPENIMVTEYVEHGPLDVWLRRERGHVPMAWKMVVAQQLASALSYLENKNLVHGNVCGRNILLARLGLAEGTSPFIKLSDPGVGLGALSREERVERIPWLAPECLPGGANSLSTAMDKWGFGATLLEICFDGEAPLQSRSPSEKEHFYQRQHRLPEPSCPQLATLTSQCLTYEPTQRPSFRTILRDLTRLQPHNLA
Kd [1],IC50 [2],Structure (SMILES)
< 0.2 nM,10 to 100 nM,"COc1c(Nc2cc(Nc3cc(C)nc(C)n3)ncn2)ncc(-c2cnn(C)c2C)c1C [Example 141, N6-[5-(1,5-dimethylpyrazol-4-yl)-3-methoxy-4-methyl-2-pyridyl]-N4-(2,6-dimethylpyrimidin-4-yl)pyrimidine-4,6-diamine]"
< 0.2 nM,10 to 100 nM,"Cc1cc(Nc2cc(Nc3ncc(-c4cnc(C)n4C)cc3N(C)S(C)(=O)=O)ncn2)nc(C)n1 [Example 142, N-[5-(2,3-dimethylimidazol-4-yl)-2-[[6-[(2,6-dimethylpyrimidin-4-yl)amino]pyrimidin-4-yl]amino]-3-pyridyl]-N-methyl-methanesulfonamide]"
1 to 10 nM,> 1000 nM,"COc1c(-c2noc(C(F)(F)F)n2)ccnc1Nc1cc(Nc2cc(C)nc(C)n2)ncn1 [Example 143, N6-(2,6-dimethylpyrimidin-4-yl)-N4-[3-methoxy-4-[5-(trifluoromethyl)-1,2,4-oxadiazol-3-yl]-2-pyridyl]pyrimidine-4,6-diamine]"
< 0.2 nM,10 to 100 nM,"Cc1cc(Nc2cc(Nc3ncc(-c4cnn(C)c4C)cc3NS(C)(=O)=O)ncn2)nc(C)n1 [Example 144, N-[5-(1,5-dimethylpyrazol-4-yl)-2-[[6-[(2,6-dimethylpyrimidin-4-yl)amino]pyrimidin-4-yl]amino]-3-pyridyl]methanesulfonamide]"
< 0.2 nM,10 to 100 nM,"Cc1cc(Nc2cc(Nc3ncccc3P(C)(C)=O)ncn2)nc(C)n1 [Example 145, N6-(3-dimethylphosphoryl-2-pyridyl)-N4-(2,6-dimethylpyrimidin-4-yl)pyrimidine-4,6-diamine]"
< 0.2 nM,< 10 nM,"COc1cc(-c2cnn(C)c2C)cnc1Nc1cc(Nc2cc(C)nc(C)n2)ncn1 [Example 146, N6-[5-(1,5-dimethylpyrazol-4-yl)-3-methoxy-2-pyridyl]-N4-(2,6-dimethylpyrimidin-4-yl)pyrimidine-4,6-diamine]"
< 0.2 nM,10 to 100 nM,"Cc1cc(Nc2cc(Nc3ncc(-c4cn(C)cn4)cc3N(C)S(C)(=O)=O)ncn2)nc(C)n1 [Example 147, N-[2-[[6-[(2,6-dimethylpyrimidin-4-yl)amino]pyrimidin-4-yl]amino]-5-(1-methylimidazol-4-yl)-3-pyridyl]-N-methyl-methanesulfonamide]"
< 0.2 nM,10 to 100 nM,"COc1c(-c2nc(C)n(C)n2)ccnc1Nc1cc(Nc2cc(C)nc(C)n2)ncn1 [Example 148, N4-(2,6-dimethylpyrimidin-4-yl)-N6-[4-(1,5-dimethyl-1,2,4-triazol-3-yl)-3-methoxy-2-pyridyl]pyrimidine-4,6-diamine]"
< 0.2 nM,< 10 nM,"Cc1cc(Nc2cc(Nc3ncc(-c4cnn(C)c4C)cc3P(C)(C)=O)ncn2)nc(C)n1 [Example 149, N6-[3-dimethylphosphoryl-5-(1,5-dimethylpyrazol-4-yl)-2-pyridyl]-N4-(2,6-dimethylpyrimidin-4-yl)pyrimidine-4,6-diamine]"
< 0.2 nM,< 10 nM,"Cc1cc(Nc2cc(Nc3nccc(C)c3S(C)(=O)=O)ncn2)nc(C)n1 [Example 150, N4-(2,6-dimethylpyrimidin-4-yl)-N6-(4-methyl-3-methylsulfonyl-2-pyridyl)pyrimidine-4,6-diamine]"
< 0.2 nM,< 10 nM,"Cc1c(-c2cnc(Nc3cc(NC(=O)C4CC4)ncn3)c(S(C)(=O)=O)c2)cnn1C [Example 151, N-[6-[[5-(1,5-dimethylpyrazol-4-yl)-3-methylsulfonyl-2-pyridyl]amino]pyrimidin-4-yl]cyclopropanecarboxamide]"
< 0.2 nM,< 10 nM,"Cc1c(-c2cnc(Nc3cc(Nc4ccc(F)cn4)ncn3)c(S(C)(=O)=O)c2)cnn1C [Example 152, N4-[5-(1,5-dimethylpyrazol-4-yl)-3-methylsulfonyl-2-pyridyl]-N6-(5-fluoro-2-pyridyl)pyrimidine-4,6-diamine]"
< 0.2 nM,< 10 nM,"Cc1cc(Nc2cc(Nc3ncc(-c4cnn(C)c4C)c(C)c3S(C)(=O)=O)ncn2)nc(C)n1 [Example 153, N6-[5-(1,5-dimethylpyrazol-4-yl)-4-methyl-3-methylsulfonyl-2-pyridyl]-N4-(2,6-dimethylpyrimidin-4-yl)pyrimidine-4,6-diamine]"
< 0.2 nM,10 to 100 nM,"Cc1cc(Nc2cc(Nc3ncc(-c4nc(C)n(C)n4)cc3N(C)S(C)(=O)=O)ncn2)ncn1 [Example 154, N-[5-(1,5-dimethyl-1,2,4-triazol-3-yl)-2-[[6-[(6-methylpyrimidin-4-yl)amino]pyrimidin-4-yl]amino]-3-pyridyl]-N-methyl-methanesulfonamide]"
0.2 to 1 nM,100 to 1000 nM,"Cc1cc(Nc2cc(Nc3ncc(-c4nc(C)nn4C)cc3N(C)S(C)(=O)=O)ncn2)ncn1 [Example 155, N-[5-(2,5-dimethyl-1,2,4-triazol-3-yl)-2-[[6-[(6-methylpyrimidin-4-yl)amino]pyrimidin-4-yl]amino]-3-pyridyl]-N-methyl-methanesulfonamide]"
1 to 10 nM,> 1000 nM,"Cc1cc(Nc2cc(Nc3nc(C)ccc3S(C)(=O)=O)ncn2)ncn1 [Example 156, N6-(6-methyl-3-methylsulfonyl-2-pyridyl)-N4-(6-methylpyrimidin-4-yl)pyrimidine-4,6-diamine]"
0.2 to 1 nM,10 to 100 nM,"Cc1cc(Nc2cc(Nc3ncc(C4CCOCC4)cc3N(C)S(C)(=O)=O)ncn2)nc(C)n1 [Example 157, N-[2-[[6-[(2,6-dimethylpyrimidin-4-yl)amino]pyrimidin-4-yl]amino]-5-(oxan-4-yl)pyridin-3-yl]-N-methylmethanesulfonamide]"
< 0.2 nM,10 to 100 nM,"Cc1ccc(Nc2cc(Nc3ncc(-c4cnn(C)c4C)cc3N(C)S(C)(=O)=O)ncn2)nn1 [Example 158, N-[5-(1,5-dimethylpyrazol-4-yl)-2-[[6-[(6-methylpyridazin-3-yl)amino]pyrimidin-4-yl]amino]-3-pyridyl]-N-methyl-methanesulfonamide]"
< 0.2 nM,< 10 nM,"COc1c(-c2noc(C)n2)ccnc1Nc1cc(Nc2cc(C)nc(C)n2)ncn1 [Example 159, 4-N-(2,6-dimethylpyrimidin-4-yl)-6-N-[3-methoxy-4-(5-methyl-1,2,4-oxadiazol-3-yl)pyridin-2-yl]pyrimidine-4,6-diamine]"
< 0.2 nM,10 to 100 nM,"Cc1c(-c2cnc(Nc3cc(NC(=O)[C@H]4C[C@H]4F)ncn3)c(N(C)S(C)(=O)=O)c2)cnn1C [Example 160, (1R,2R)-N-[6-[[5-(1,5-dimethylpyrazol-4-yl)-3-[methyl(methylsulfonyl)amino]-2-pyridyl]amino]pyrimidin-4-yl]-2-fluoro-cyclopropanecarboxamide]"
< 0.2 nM,10 to 100 nM,"Cc1c(-c2cnc(Nc3cc(NC(=O)C4CC4)ncn3)c(P(C)(C)=O)c2)cnn1C [Example 161, N-[6-[[3-dimethylphosphoryl-5-(1,5-dimethylpyrazol-4-yl)-2-pyridyl]amino]pyrimidin-4-yl]cyclopropanecarboxamide]"
< 0.2 nM,< 10 nM,"Cc1cc(Nc2cc(Nc3nc(C)c(-c4cnn(C)c4)cc3N(C)S(C)(=O)=O)ncn2)ncn1 [Example 162, N-methyl-N-[6-methyl-5-(1-methylpyrazol-4-yl)-2-[[6-[(6-methylpyrimidin-4-yl)amino]pyrimidin-4-yl]amino]-3-pyridyl]methanesulfonamide]"
< 0.2 nM,< 10 nM,"Cc1cc(Nc2cc(Nc3nc(C)c(-c4cnn(C)c4C)cc3N(C)S(C)(=O)=O)ncn2)ncn1 [Example 163, N-[5-(1,5-dimethylpyrazol-4-yl)-6-methyl-2-[[6-[(6-methylpyrimidin-4-yl)amino]pyrimidin-4-yl]amino]-3-pyridyl]-N-methyl-methanesulfonamide]"
< 0.2 nM,10 to 100 nM,"CN=S(C)(=O)c1cccnc1Nc1cc(Nc2cc(C)nc(C)n2)ncn1 (centres unmarked) [Example 164, N4-(2,6-dimethylpyrimidin-4-yl)-N6-[3-(N,S-dimethylsulfonimidoyl)-2-pyridyl]pyrimidine-4,6-diamine]"
0.2 to 1 nM,100 to 1000 nM,"COc1cc(-c2cnn(C)c2)c(C)nc1Nc1cc(Nc2cc(C)ncn2)ncn1 [Example 165, N4-[3-methoxy-6-methyl-5-(1-methylpyrazol-4-yl)-2-pyridyl]-N6-(6-methylpyrimidin-4-yl)pyrimidine-4,6-diamine]"
< 0.2 nM,< 10 nM,"Cc1cc(Nc2cc(Nc3ncc(C4CCCCO4)cc3N(C)S(C)(=O)=O)ncn2)nc(C)n1 (centres unmarked) [Example 167, N-[2-[[6-[(2,6-dimethylpyrimidin-4-yl)amino]pyrimidin-4-yl]amino]-5-tetrahydropyran-2-yl-3-pyridyl]-N-methyl-methanesulfonamide]"
< 0.2 nM,10 to 100 nM,"COCCn1cnc(-c2ccnc(Nc3cc(Nc4cc(C)nc(C)n4)ncn3)c2OC)n1 [Example 169, N6-(2,6-dimethylpyrimidin-4-yl)-N4-[3-methoxy-4-[1-(2-methoxyethyl)-1,2,4-triazol-3-yl]-2-pyridyl]pyrimidine-4,6-diamine]"

Structure (SMILES),Kd [1],IC50 [2]
"CN=S(C)(=O)c1cc(-c2cnn(C)c2C)cnc1Nc1cc(Nc2cc(C)nc(C)n2)ncn1 (centres unmarked) [Example 168, N6-[5-(1,5-dimethylpyrazol-4-yl)-3-(N,S-dimethylsulfonimidoyl)-2-pyridyl]-N4-(2,6-dimethylpyrimidin-4-yl)pyrimidine-4,6-diamine]",< 0.2 nM,< 10 nM
